Laboratory results published in patent US8623347B2 (priority 2008, dated 2014).
Like-named read-outs stand apart in the source and are kept apart here.

Assays:
[1] = system: LCMV Armstrong strain (Arm53b); assay: organism not typed; type: cell-based; conditions: for EC50: Vero
[2] = system: LCMV S RNA and NP mRNA; type: cell-based
[3] = in vitro
[4] = system: LCMV NP and L proteins (replication and transcription of RNA analog); type: cell-based
[5] = system: LCMV; conditions: cited from earlier work
[6] = read-out: 50% effective concentration (EC50)
[7] = read-out: Activity (EC50 class)

Row | Compound | EC50 [1, 7] | also measured
1 | c1ccc2[nH]c(-c3nc4ccccc4[nH]3)nc2c1 [Compound 1, 1H, 1′H-[2,2′]Bibenzoimidazolyl] | < 1 µM | screening result in compound library screen [1]: hit; EC50 [1, 6]: 0.08 µM; synthesis of viral S RNA and NP mRNA relative to untreated controls [2]: dramatically suppressed; CC50 [3]: > 25 µM; CAT reporter activity [4]: No CAT activity was observed
2 | Cc1cc2nc(-c3nc4cc(C)c(C)cc4[nH]3)[nH]c2cc1C [Compound 2, 5,6,6′,6′-Tetramethyl-1H, 1′H-[2,2′]bibenzoimidazolyl] | 1 to 10 µM | 
3 | Cn1c(-c2nc3ccccc3n2C)nc2ccccc21 [Compound 3, 1,1′-Dimethyl-1H,1′H-[2,2′]bibenzoimidazolyl] | > 25 µM | 
4 | O=[N+]([O-])c1ccc2nc(-c3nc4ccc([N+](=O)[O-])cc4[nH]3)[nH]c2c1 [Compound 5, 6,6′-Dinitro-1H,1′H-[2,2′]bibenzoimidazolyl] | > 25 µM | 
5 | Fc1cccc2[nH]c(-c3nc4c(F)cccc4[nH]3)nc12 [Compound 6, 4,4′-Difluoro-1H,1′H-[2,2′]bibenzoimidazolyl] | < 1 µM | EC50 [1, 6]: 0.006 µM
6 | Fc1ccc2[nH]c(-c3nc4cc(F)ccc4[nH]3)nc2c1 [Compound 7, 5,5′-Difluoro-1H,1′H-[2,2′]bibenzoimidazolyl] | < 1 µM | EC50 [1, 6]: 0.063 µM
7 | Clc1ccc2[nH]c(-c3nc4cc(Cl)ccc4[nH]3)nc2c1 [Compound 8, 5,5′-Dichloro-1H,1′H-[2,2′]bibenzoimidazolyl] | 1 to 10 µM | 
8 | Brc1ccc2[nH]c(-c3nc4cc(Br)ccc4[nH]3)nc2c1 [Compound 9, 5,5′-Dibromo-1H,1′H-[2,2′]bibenzoimidazolyl] | 1 to 10 µM | 
9 | Cc1cccc2[nH]c(-c3nc4c(C)cccc4[nH]3)nc12 [Compound 10, 4,4′-Dimethyl-1H,1′H-[2,2′]bibenzoimidazolyl] | > 25 µM | 
10 | Cc1ccc2[nH]c(-c3nc4cc(C)ccc4[nH]3)nc2c1 [Compound 11, 5,5′-Dimethyl-1H,1′H-[2,2′]bibenzoimidazolyl] | > 25 µM | 
11 | COc1cccc2[nH]c(-c3nc4c(OC)cccc4[nH]3)nc12 [Compound 12, 4,4′-Dimethoxy-1H,1′H-[2,2′]bibenzoimidazolyl] | > 25 µM | 
12 | COc1ccc2[nH]c(-c3nc4cc(OC)ccc4[nH]3)nc2c1 [Compound 13, 5,5′-Dimethoxy-1H,1′H-[2,2′]bibenzoimidazolyl] | 10 to 25 µM | 
13 | COC(=O)c1cccc2[nH]c(-c3nc4c(C(=O)OC)cccc4[nH]3)nc12 [Compound 14, 1H,1′H-[2,2′]Bibenzoimidazolyl-4,4′-dicarboxylic acid dimethyl ester] | > 25 µM | 
14 | COC(=O)c1ccc2[nH]c(-c3nc4cc(C(=O)OC)ccc4[nH]3)nc2c1 [Compound 15, 1H,1′H-[2,2′]Bibenzoimidazolyl-5,5′-dicarboxylic acid dimethyl ester] | > 25 µM | 
15 | c1ccc(-c2cccc3[nH]c(-c4nc5c(-c6ccccc6)cccc5[nH]4)nc23)cc1 [Compound 16, 4,4′-Diphenyl-1H,1′H-[2,2′]bibenzoimidazolyl] | > 25 µM | melting point: 247 to 250 °C (dec.)
16 | Fc1ccc2[nH]c(-c3nc4c(F)c(F)ccc4[nH]3)nc2c1F [Compound 17, 4,5,4′,5′-Tetrafluoro-1H,1′H-[2,2′]bibenzoimidazolyl] | < 1 µM | 
17 | Fc1cc(F)c2nc(-c3nc4c(F)cc(F)cc4[nH]3)[nH]c2c1 [Compound 18, 4,6,4′,6′-Tetrafluoro-1H,1′H-[2,2′]bibenzoimidazolyl] | < 1 µM | 
18 | Fc1cc2nc(-c3nc4cc(F)c(F)cc4[nH]3)[nH]c2cc1F [Compound 19, 5,6,5′,6′-Tetrafluoro-1H,1′H-[2,2′]bibenzoimidazolyl] | < 1 µM | 
19 | c1cnc2nc(-c3nc4ncccc4[nH]3)[nH]c2c1 [Compound 20, 1H,1′H-[2,2′]Bi[imidazo[4,5 b]pyridinyl]] | < 1 µM | 
20 | c1cc2nc(-c3nc4ccncc4[nH]3)[nH]c2cn1 [Compound 21, 3H,3′H-[2,2′]Bi[imidazo[4,5 c]pyridinyl]] | 10 to 25 µM | melting point: > 300 °C
21 | NC(=O)c1ncn([C@@H]2O[C@H](CO)[C@@H](O)[C@H]2O)n1 [ribavirin] |  | antiviral activity against LCMV in vitro [5]: limited antiviral activity
